The results in this text go back to patent US9446127B2, “Compositions including androgen receptor degradation (ARD) enhancers and methods of prophylactic or therapeutic treatment of skin disorders and hair loss” (AndroScience Corporation, priority 2007, dated 2016).

Experiment [1] relates to testosterone-induced hair growth suppression. Description: Testosterone-induced alopecia model, hair re-growth. Format: in vivo, C57BL/6J mice. The conditions noted are these: testosterone mornings. The procedure:
C57BL/6J mice were used in this animal model for hair loss and regrowth (Uno et al. (1990) J. Cutaneous Aging & Cosm. Derm., 1:193, which is incorporated by reference in its entirety herein). Six-week-old male mice (6 to 7 animals per group) were shaved with an electric clipper, and then treated with a hair-removal cream for 1 to 2 minutes. […] One day after hair removal, a first group of animals each received 100 microliters of a 1% testosterone solution in ethanol, applied topically to the shaved area, once each morning for twenty consecutive days. A second group of animals each received 100 microliters of vehicle (ethanol) alone, applied topically to the shaved area, once each morning for twenty consecutive days. The first group of mice (testosterone-treated) were divided further into a control group and a treatment group. Also beginning one day after hair removal, each mouse in the control group received 100 microliters of a control solution (60% ethanol, 20% propylene glycol, and 20% water) and each mouse in the treatment group received 100 microliters of the test compound, ASC-J9 (0.02% in the same 60% ethanol, 20% propylene glycol, and 20% water solution), applied topically to the shaved area, once each afternoon for twenty consecutive days. Hair re-growth in the shaved areas was observed and photographed at 0, 4, 8, 11 and 14 days after beginning of the topical treatments.

Experiment [2] deals with acne-affected skin. In words: Topical treatment of acne in human volunteers. Format: in vivo. The procedure: In this example, human subjects were successfully treated for acne by topical administration of a cream containing the compound ASC-J15 or ASC-J9, which were shown in the previous examples to ameliorate the effects of the androgen receptor-activated pathway, specifically by inducing degradation of the androgen receptor. A basic carrier formulation was prepared by mixing two solutions: (1) a water-based solution containing aristoflex avc, Osmocide, Tween 20, and water; and (2) an oil-based solution containing isopropyl myristate, coconut dienthanolamine, ethylparaben, isobutylparaben, methylparaben, and propylparaben. […]
Male and female human volunteers ranging in age from 15 years to 52 years were treated by topical application of the test compounds to the acne-affected skin. Subjects were asked to apply the cream to the acne-affected areas twice a day (once in the morning and once in the evening). […] The results are given in Table 2, and a representative result (photo pictures) from one volunteer is depicted in FIG. 14. FIG. 14A depicts the volunteer's forehead and FIG. 14B depicts the volunteer's back.

In experiment [3] the target is T1, mutant androgen receptor poly Q49 (GFPARQ49) (Homo sapiens, UniProt P10275, INS80QQQQQQQQQQQQQQQQQQQQQQQQQQ).
T1 construct: GFP (green fluorescent protein); expressed in transfected cells; host or cells: COS-1 (monkey kidney)
Description: Fluorescence microscopy of COS-1 cells transfected with GFPARQ49. The conditions noted are these: COS-1, 5 micromolar. Format: cell-based. The procedure:
Monkey kidney COS-1 cells were plated at a density of 3×10^4 cells per 0.5-milliliter volume onto alcohol-cleaned and sterilized cover slips placed in 35-millimeter suspension culture dishes containing Dulbecco's modified Eagle's (DME) medium containing 10% FBS. The cells were transfected with plasmids containing the wild type AR (GFPAR) or poly Q49 (plasmid GFPARQ49) mutant androgen receptor and green fluorescent protein (GFP) as a reporter. For each coverslip, 12.3 microliters SuperFect was added to 3.075 micrograms plasmid in 102.5 microliters DME medium (to give a 1:4 ratio of DNA to SuperFect reagent); the mixture was vortexed briefly, and the complex allowed to form over 15 minutes. Each mixture then received 897 microliters CD/DME and was mixed gently. The resulting 1-milliliter volumes were added to the dishes containing the coverslips (final plasmid concentration was […] per dish). Cells were allowed to incubate with the transfection solution for 5 hours, then the medium was changed to fresh 1.5 milliliters CD/DME medium with either vehicle (DMSO) only added or ASC-J9 (final concentration 5 micromolar). […] The coverslips were air-dried, mounted on slides with a glycerol-based mounting agent, and stored at 4 degrees Celsius if necessary prior to observation with fluorescence microscopy. […]

The test system of experiment [4] is ER beta, PPARα, β or γ, RXRα, hsp70, actin. Description: Specificity Western blot in LNCaP cell lysates, other nuclear receptors or proteins. As to conditions: 1 or 5 micromolar, 24 hours, presence or absence of DHT. Format: cell-based, human. The procedure: Human prostate cancer LNCaP cells and T47D cells were plated at a density of 7×10^5 cells per 60 millimeter tissue culture dish in […] medium containing 10% FBS. The medium was changed to RPMI or DME medium containing 10% charcoal-stripped serum 24 hours later to deplete cellular androgens or estrogens. After another 24 hours, treatment with the test compounds began. The test dose of ASC-J9 was 1, and 5 and micromolar. LNCap cells also received dihydrotestosterone (DHT) (3 nanomolar). Control cells received a corresponding amount of the vehicle, dimethylsulfoxide (DMSO) (<0.04%) for an equivalent exposure time. Cells were incubated with ASC-J9 for 24 hours, and were lysed in 250 microliters of 1×SDS/PAGE loading buffer. Approximately 40 micrograms of total cellular protein was loaded in each lane of a pre-cast gel (NuPAGE, Invitrogen). Protein separation and transfer were performed following the manufacturer's instructions.
For the LNCaP cell lysates, androgen receptor (AR) protein was visualized by incubating the resultant membranes with an anti-AR antibody (BD-PharMingen), followed by chemiluminescence detection (ECL Plus, Amersham). […] The resultant protein signals were quantified using densitometry and NIH ImageJ software.
(In general: Immunoblotting shows a protein as a band on a membrane.)

Each structure is given as a SMILES string. Values joined by “and” are separate entries in the source; they are usually repeats but may differ in a detail not shown here. Equal entries are not always repeated.

T1 sequence (P10275 with tags, fused parts or gaps with the stated changes): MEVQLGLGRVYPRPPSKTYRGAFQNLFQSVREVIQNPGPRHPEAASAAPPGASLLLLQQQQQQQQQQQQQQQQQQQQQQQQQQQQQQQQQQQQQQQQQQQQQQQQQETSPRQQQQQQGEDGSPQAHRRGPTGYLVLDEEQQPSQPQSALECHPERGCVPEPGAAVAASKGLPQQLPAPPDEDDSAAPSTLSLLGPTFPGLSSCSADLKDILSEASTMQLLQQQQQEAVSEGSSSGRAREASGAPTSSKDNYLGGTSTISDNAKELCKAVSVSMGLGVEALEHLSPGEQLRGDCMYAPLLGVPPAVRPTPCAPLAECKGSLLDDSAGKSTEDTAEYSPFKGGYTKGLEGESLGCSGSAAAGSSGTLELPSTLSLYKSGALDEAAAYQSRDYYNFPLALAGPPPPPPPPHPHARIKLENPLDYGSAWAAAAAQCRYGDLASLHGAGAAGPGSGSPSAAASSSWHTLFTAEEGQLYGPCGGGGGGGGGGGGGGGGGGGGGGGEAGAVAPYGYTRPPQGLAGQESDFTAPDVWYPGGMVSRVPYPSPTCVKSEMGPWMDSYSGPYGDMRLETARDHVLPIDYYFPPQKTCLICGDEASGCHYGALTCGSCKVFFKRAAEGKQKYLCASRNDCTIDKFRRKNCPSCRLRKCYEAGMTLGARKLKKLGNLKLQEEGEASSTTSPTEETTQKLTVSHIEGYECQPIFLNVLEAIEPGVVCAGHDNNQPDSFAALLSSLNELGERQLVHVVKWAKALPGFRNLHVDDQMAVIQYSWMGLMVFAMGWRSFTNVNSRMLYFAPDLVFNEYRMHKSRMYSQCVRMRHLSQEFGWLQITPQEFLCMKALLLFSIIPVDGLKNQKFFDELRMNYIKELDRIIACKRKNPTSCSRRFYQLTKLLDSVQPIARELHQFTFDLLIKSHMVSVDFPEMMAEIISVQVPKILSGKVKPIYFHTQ

For `COc1ccc(C=CC(=O)C=C(O)C=Cc2ccc(OC)c(OC)c2)cc1OC` [ASC-J9, 5-hydroxy-1,7-bis(3,4-dimethoxyphenyl)-1,4,6-heptatrien-3-one], the “hair re-growth in shaved areas” value in experiment [1] (0.02% topical afternoons, day 8 to day 17) is on record as “rapid re-growth of hair”; in experiment [1] (topical afternoons, after 20 days), “fully re-growth of hair”. The “Recovery Time” value in experiment [2] (topical cream 1 micromolar, one line per subject (age, sex, frequency in Table 2)) was 2 weeks and 1 week weeks; in experiment [2] (topical cream 2.5 micromolar, twice a day, subject 24), 1 week. The “skin condition of acne-affected male volunteers (photographs)” value in experiment [2] (topical, 2.5 micromolar forehead (FIG. 14A), 625 μM back (FIG. 14B)) is listed as “visible improvement to skin condition”. Further, in experiment [3], the “fluorescent inclusions or aggregates of mutant poly Q49 AR” value was “substantially smaller amounts of fluorescent inclusions”. Moreover, the “other tested nuclear receptors or proteins” value in experiment [4] is reported as “did not substantially affect”.
